Data on eight compounds can be found in patent publication US20250179055A1, “Substituted 2-(pyrrolidine-3-yl)acetic acid derivative, preparation method and use thereof” (INNOVSTONE THERAPEUTICS LIMITED, priority 2023, published 2025).

Molecules are shown by their SMILES.

Lp(a) assembly in HepG2 cells overexpressing ApoA protein, sequence (P08519 20-2040): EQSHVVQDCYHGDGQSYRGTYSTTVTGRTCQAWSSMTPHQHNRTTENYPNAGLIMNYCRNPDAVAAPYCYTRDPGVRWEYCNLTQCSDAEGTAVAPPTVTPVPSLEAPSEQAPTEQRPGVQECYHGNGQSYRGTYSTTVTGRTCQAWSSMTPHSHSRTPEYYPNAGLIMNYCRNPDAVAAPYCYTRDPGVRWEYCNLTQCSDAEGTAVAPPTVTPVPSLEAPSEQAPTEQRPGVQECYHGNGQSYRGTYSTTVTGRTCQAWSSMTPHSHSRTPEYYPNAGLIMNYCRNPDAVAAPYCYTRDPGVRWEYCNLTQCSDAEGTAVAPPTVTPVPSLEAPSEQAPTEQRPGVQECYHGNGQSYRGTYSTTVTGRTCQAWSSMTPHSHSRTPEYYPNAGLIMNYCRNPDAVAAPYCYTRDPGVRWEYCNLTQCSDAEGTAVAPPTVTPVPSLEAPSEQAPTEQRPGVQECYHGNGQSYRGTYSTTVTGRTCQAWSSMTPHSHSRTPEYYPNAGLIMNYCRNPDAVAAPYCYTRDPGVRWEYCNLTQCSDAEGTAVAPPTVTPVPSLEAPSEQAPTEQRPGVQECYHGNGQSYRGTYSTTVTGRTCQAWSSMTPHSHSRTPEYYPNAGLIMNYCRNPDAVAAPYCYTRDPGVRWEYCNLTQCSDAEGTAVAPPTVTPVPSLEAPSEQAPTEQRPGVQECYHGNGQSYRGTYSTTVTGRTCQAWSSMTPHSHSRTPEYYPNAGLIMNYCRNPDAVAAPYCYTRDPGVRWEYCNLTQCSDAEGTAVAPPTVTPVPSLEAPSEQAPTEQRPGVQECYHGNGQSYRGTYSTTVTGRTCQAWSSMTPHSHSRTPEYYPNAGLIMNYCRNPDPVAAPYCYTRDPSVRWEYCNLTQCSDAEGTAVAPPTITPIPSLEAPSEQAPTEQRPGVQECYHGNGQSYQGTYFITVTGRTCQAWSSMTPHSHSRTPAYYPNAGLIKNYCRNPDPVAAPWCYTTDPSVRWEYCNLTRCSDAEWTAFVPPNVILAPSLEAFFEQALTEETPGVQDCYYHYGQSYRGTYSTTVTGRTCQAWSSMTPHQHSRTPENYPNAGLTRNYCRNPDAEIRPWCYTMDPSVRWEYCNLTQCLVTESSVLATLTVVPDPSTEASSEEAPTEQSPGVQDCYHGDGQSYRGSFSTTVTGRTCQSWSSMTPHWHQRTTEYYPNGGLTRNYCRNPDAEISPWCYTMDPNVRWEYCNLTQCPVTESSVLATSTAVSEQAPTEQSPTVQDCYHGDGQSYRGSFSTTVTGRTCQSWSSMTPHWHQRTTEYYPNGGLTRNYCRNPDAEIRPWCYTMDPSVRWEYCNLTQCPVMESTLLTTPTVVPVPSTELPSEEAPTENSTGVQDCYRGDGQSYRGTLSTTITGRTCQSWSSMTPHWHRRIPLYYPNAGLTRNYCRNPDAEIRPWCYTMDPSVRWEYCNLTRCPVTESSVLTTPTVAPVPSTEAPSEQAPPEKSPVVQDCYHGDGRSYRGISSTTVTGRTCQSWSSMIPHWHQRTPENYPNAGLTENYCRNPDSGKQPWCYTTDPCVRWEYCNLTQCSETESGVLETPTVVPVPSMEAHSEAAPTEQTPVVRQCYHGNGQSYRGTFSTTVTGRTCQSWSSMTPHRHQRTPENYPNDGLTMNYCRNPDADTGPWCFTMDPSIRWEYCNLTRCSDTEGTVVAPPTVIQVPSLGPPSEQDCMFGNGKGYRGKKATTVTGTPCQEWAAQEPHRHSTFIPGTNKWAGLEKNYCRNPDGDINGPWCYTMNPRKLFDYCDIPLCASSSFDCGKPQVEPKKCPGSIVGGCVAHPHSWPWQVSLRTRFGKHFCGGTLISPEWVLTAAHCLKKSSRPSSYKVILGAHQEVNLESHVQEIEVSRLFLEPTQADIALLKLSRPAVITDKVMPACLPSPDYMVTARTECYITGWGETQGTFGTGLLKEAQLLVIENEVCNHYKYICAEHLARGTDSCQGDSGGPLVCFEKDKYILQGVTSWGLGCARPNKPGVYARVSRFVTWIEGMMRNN

This experiment concerns the target Lp(a) assembly in HepG2 cells overexpressing ApoA protein (Homo sapiens (Human), UniProt P08519). The experiment is described as follows: ELISA assay on screening Lp(a) assembly inhibition. The format is cell-based. The conditions noted are these: HepG2 cells overexpressing ApoA protein, 24 h, ELISA of supernatant. Here is the method:
Test Example 1 and Methods of ELISA Assay on Screening Lp(a) Assembly Inhibition
• 1) Preheated the culture media, DPBS, and pancreatin in a 37° C. water bath in advance. • 2) Digested cells with pancreatin, transferred the cell suspension to a 15 mL centrifuge tube, and centrifuged at 1000 rpm for 5 min. • 3) Resuspended the cells with culture media and transferred the cell suspension to a new T75 cell culture flask. • 4) Cultured at 37° C. in a 5% CO2 incubator.
• 1) Seeded HepG2 cells overexpressing of ApoA protein into a 96-well plate at 100 μL per well and incubated overnight for attachment. • 2) Replaced with fresh culture media the next day, then added diluted compounds, and cultured the cell plate in a 5% CO2, 37° C. incubator for 24 h.
• 1) Added 10 μL of 1.5 M EACA to each well. • 2) Centrifuged at 1000 rpm for 1 min, and transferred 100 μL of cell culture supernatant to a pre-coated ELISA plate.
• 1) Added 100 μL of capture antibody to each well of a pre-coated ELISA plate and incubated overnight at 25° C. • 2) Added 300 μL of washing solution to each well and washed 5 times for 1 min each time. • 3) Added 100 μL of blocking solution to each well and incubated at 25° C. for 2 h. • 4) Added 300 μL of washing solution to each well and washed 5 times for 1 min each time. • 5) Added 100 μL of sample to each well and incubated at 25° C. for 1 h. • 6) Added 300 μL of washing solution to each well and washed 5 times for 1 min each time. • 7) Added 100 μL of detection antibody to each well and incubated at 25° C. for 1 h. • 8) Added 300 μL of washing solution to each well and washed 5 times for 1 min each time. • 9) Added 100 μL substrate solution (Color Reagent A: Color Reagent B, 1:1) to each well and incubated for 20 min at 25° C. in the dark. • 10) Added […] of stop solution to each well, gently blowed and sucked several times with the pipette tip, and read within 5 min.
[formula] • X: cpd concentration • Y: inhibition % • Top and Bottom: Plateaus in same units as Y • log IC50: same log units as X • HillSlope: Slope factor or Hill slope
A general note: An ELISA detects its analyte on a solid surface through an enzyme-linked reagent.
On to `O=C(O)[C@@H](Cc1cccc(CN(CCOc2cccc(C[C@H](C(=O)O)[C@H]3CCNC3)c2)C(=O)COc2cccc(C[C@H](C(=O)O)[C@H]3CCNC3)c2)c1)[C@H]1CCNC1` [Compound 135, (S)-3-(3-(2-((3-((S)-2-carboxy-2-((R)-pyrrolidin-3-yl)ethyl)benzyl)(2-(3-((S)-2-carboxy-2-((R)-pyrrolidin-3-yl)ethyl)phenoxy)ethyl)amino)-2-oxoethoxy)phenyl)-2-((R)-pyrrolidin-3-yl)propanoic acid], for which half-maximal inhibition (IC50) was put at 0.71 nM. As to `O=C(O)[C@@H](Cc1csc(CN(Cc2cc(C[C@H](C(=O)O)[C@H]3CCNC3)cs2)Cc2cc(C[C@H](C(=O)O)[C@H]3CCNC3)cs2)c1)[C@H]1CCNC1` [Compound 137, (2S,2′S,2″S)-3,3′,3″-((nitrilotris(methylene))tris(thiophene-5,3-diyl))tris(2-((R)-pyrrolidin-3-yl)propanoic acid)], the half-maximal inhibitory concentration (IC50) (as a rule, the concentration that inhibits the measured activity by half) was 1.08 nM. The value for `O=C(O)[C@@H](Cc1cccc(CN(CCOc2cccc(C[C@H](C(=O)O)[C@H]3CCNC3)c2)C(=O)Oc2cccc(C[C@H](C(=O)O)[C@H]3CCNC3)c2)c1)[C@H]1CCNC1` [Compound 139, (S)-3-(3-(2-((3-((S)-2-carboxy-2-((R)-pyrrolidin-3-yl)ethyl)benzyl)((3-((S)-2-carboxy-2-((R)-pyrrolidin-3-yl)ethyl)phenoxy)carbonyl)amino)ethoxy)phenyl)-2-((R)-pyrrolidin-3-yl)propanoic acid] was 0.66 nM; that for `O=C(O)[C@@H](Cc1cccc(CCC(=O)N(CCOc2cccc(C[C@H](C(=O)O)[C@H]3CCNC3)c2)Cc2cccc(C[C@H](C(=O)O)[C@H]3CCNC3)c2)c1)[C@H]1CCNC1` [Compound 140, (S)-3-(3-(3-((3-((S)-2-carboxy-2-((R)-pyrrolidin-3-yl)ethyl)benzyl)(2-(3-((S)-2-carboxy-2-((R)-pyrrolidin-3-yl)ethyl)phenoxy)ethyl)amino)-3-oxopropyl)phenyl)-2-((R)-pyrrolidin-3-yl)propanoic acid] was 0.79 nM; that for `O=C(O)[C@@H](Cc1cccc(CNC(=O)N(CCOc2cccc(C[C@H](C(=O)O)[C@H]3CCNC3)c2)Cc2cccc(C[C@H](C(=O)O)[C@H]3CCNC3)c2)c1)[C@H]1CCNC1` [Compound 141, (S)-3-(3-(2-(1,3-bis(3-((S)-2-carboxy-2-((R)-pyrrolidin-3-yl)ethyl)benzyl)ureido)ethoxy)phenyl)-2-((R)-pyrrolidin-3-yl)propanoic acid] was 1.02 nM. The compound `O=C(Cc1cccc(C[C@H](C(=O)O)[C@H]2CCNC2)c1)NCCOc1cccc(C[C@H](C(=O)O)[C@H]2CCNC2)c1` [Compound 142, (S)-3-(3-(2-((2-(3-((S)-2-carboxy-2-((R)-pyrrolidin-3-yl)ethyl)phenoxy)ethyl)amino)-2-oxoethyl)phenyl)-2-((R)-pyrrolidin-3-yl)propanoic acid] displayed a half-inhibitory concentration (IC50) of 3.19 nM. Consider `O=C(O)[C@@H](Cc1noc2cc(CN(Cc3ccc4c(C[C@H](C(=O)O)[C@H]5CCNC5)noc4c3)Cc3ccc4c(C[C@H](C(=O)O)[C@H]5CCNC5)noc4c3)ccc12)[C@H]1CCNC1` [Compound 144, (2S,2′S,2″S)-3,3′,3″-((nitrilotris(methylene))tris(benzo[d]isoxazole-6,3-diyl))tris(2-((R)-pyrrolidin-3-yl)propanoic acid)], for which the half-maximal inhibitory concentration (IC50) amounted to 1.18 nM.

The compound `O=C(O)[C@@H](Cc1cccc(COC(=O)N(CCOc2cccc(C[C@H](C(=O)O)[C@H]3CCNC3)c2)Cc2cccc(C[C@H](C(=O)O)[C@H]3CCNC3)c2)c1)[C@H]1CCNC1` [Compound 145, (S)-3-(3-(2-((3-((S)-2-carboxy-2-((R)-pyrrolidin-3-yl)ethyl)benzyl)(((3-((S)-2-carboxy-2-((R)-pyrrolidin-3-yl)ethyl)benzyl)oxy)carbonyl)amino)ethoxy)phenyl)-2-((R)-pyrrolidin-3-yl)propanoic acid] gave a half-inhibitory concentration (IC50) of 1.72 nM.
